Test system: Normal human epidermal melanocytes (NHEM)
Experiment: Melanin inhibition rate in UVB-irradiated melanocytes
Format: cell-based
Conditions: for Melanin inhibition rate (% inhibition against UV): NHEM, UVB 14 mJ/cm^2 every 24 h, 72 hours treatment, active concentration (wt %) as in table, melanin normalized to relative cell viability; for Boost of efficacy of Vitamin K2 (melanin inhibition), in words: combination with Encap MK7 (0.0024%) in NHEM
Experimental: Effect of actives like 12HSA, 4-HR (4-hexyl resorcinol) and Encap MK7 (encapsulated Vitamin K2 of the MK-7 type) were tested individually and in combination. The protocol for the invitro assay is summarized below:
Normal human epidermal melanocytes (NHEM) (Biocell, Xi'an, China) were grown in melanocyte growth medium (MGM) with human melanocyte growth supplement (both from Promocell, Germany). NHEM cells were seeded at a density of 7×10^4 cells in 2 mL MGM/well in 6-well plates and incubated for 24 hours in an incubator at 37° C. with 5% CO2. When reaching 50% confluency, cells were irradiated with UVB at 14 mJ/cm^2 and after UV irradiation, media was replaced with fresh media containing test materials. Every 24 hours in the following 72 hours, the cells were irradiated with UVB again, and the treatment were refreshed.
At the end of the 72 hours incubation period, cell viability was determined using the Alamar Blue method. Briefly, cells were washed twice with phosphate buffered saline (PBS) solution. Freshly prepared 10% Alamar Blue working solution was added into each well including the blank control wells without cells. Plates were incubated for 1 hour at 37° C. in the CO2 incubator. The Alamar Blue solution was then transferred to a 96-well plate to check fluorescence intensity at Ex/Em 530 nm/590 nm using a fluorescent plate reader.
After cell viability evaluation, cells were further washed with PBS for twice and the cells were detached with 0.25% trypsin and collected with centrifugation. The cell pellet was added with a mixed solution (H2O:EtOH:Et2O=2:5:5 v/v) and the mixture was vortexed and left stand still for 30 min. Then the mixture was centrifuged at 1000 r/min for 10 min. The lower fraction was collected and further extracted with a solution containing 10% (v/v) DMSO and 1 M NaOH and incubated at 80° C. in a water bath for 40 minutes. Melanin standard solution was prepared in similarly by adding the same DMSO/NaOH mixed solution to the commercially sourced melanin and incubated at 80° C. for 40 minutes. The extracted melanin and the serially diluted melanin standard solution was then transferred to a 96-well plate and the absorbance at 405 nm was detected using a plate reader. The melanin content was calculated from the melanin standard curve. The melanin concentrations (μg/mL) were then normalized to the relative cell viability. The melanin inhibition rates were calculated using the following equation.

CCCCCCC(O)CCCCCCCCCCC(=O)O (stereo not shown) [A, 12-hydroxystearic acid]
Melanin inhibition rate (% inhibition against UV): 25.3% | Boost of efficacy of Vitamin K2 (melanin inhibition), in words: able to boost efficacy of Vitamin K2

CCCCCCc1ccc(O)cc1O [C, 4-hexyl resorcinol]
Melanin inhibition rate (% inhibition against UV): 38.5% | Boost of efficacy of Vitamin K2 (melanin inhibition), in words: does not do so

Source: patent US20240415752A1, “A personal care composition comprising vitamin K2 and hydroxystearic acid” (Conopco, Inc., d/b/a UNILEVER, priority 2021, published 2024)
